Source: ChEMBL document CHEMBL1201862, “PubChem BioAssay data set” (2004)
Active and inactive are the calls of the source.

Columns and labels:
[1] = molecular target: T1, E3 ubiquitin-protein ligase XIAP (Homo sapiens, UniProt P98170); test: Counter Screen using XIAP-Bir3 for Chemical Antagonists of Bir1/2 domains of IAP-family anti-apoptotic proteins. [Related pubchem assays (depositor defined):AID1018, AID1449, AID1514, AID1638, AID1749, AID1750, AID488957, AID488963]
[2] = molecular target: T1, E3 ubiquitin-protein ligase XIAP; test: XIAP antagonists, biochemical, IAP family, fluorescence polarization (AID 1018); type: functional
[3] = molecular target: Lysine-specific demethylase 4C (Homo sapiens, UniProt Q9H3R0); test: GASC-1 (JMJD2C) histone demethylase inhibitors, dose response, biochemical, DELFIA europium, cherry-picked samples (AID 488835); type: functional
Sequence of Lysine-specific demethylase 4C (Q9H3R0 whole entry): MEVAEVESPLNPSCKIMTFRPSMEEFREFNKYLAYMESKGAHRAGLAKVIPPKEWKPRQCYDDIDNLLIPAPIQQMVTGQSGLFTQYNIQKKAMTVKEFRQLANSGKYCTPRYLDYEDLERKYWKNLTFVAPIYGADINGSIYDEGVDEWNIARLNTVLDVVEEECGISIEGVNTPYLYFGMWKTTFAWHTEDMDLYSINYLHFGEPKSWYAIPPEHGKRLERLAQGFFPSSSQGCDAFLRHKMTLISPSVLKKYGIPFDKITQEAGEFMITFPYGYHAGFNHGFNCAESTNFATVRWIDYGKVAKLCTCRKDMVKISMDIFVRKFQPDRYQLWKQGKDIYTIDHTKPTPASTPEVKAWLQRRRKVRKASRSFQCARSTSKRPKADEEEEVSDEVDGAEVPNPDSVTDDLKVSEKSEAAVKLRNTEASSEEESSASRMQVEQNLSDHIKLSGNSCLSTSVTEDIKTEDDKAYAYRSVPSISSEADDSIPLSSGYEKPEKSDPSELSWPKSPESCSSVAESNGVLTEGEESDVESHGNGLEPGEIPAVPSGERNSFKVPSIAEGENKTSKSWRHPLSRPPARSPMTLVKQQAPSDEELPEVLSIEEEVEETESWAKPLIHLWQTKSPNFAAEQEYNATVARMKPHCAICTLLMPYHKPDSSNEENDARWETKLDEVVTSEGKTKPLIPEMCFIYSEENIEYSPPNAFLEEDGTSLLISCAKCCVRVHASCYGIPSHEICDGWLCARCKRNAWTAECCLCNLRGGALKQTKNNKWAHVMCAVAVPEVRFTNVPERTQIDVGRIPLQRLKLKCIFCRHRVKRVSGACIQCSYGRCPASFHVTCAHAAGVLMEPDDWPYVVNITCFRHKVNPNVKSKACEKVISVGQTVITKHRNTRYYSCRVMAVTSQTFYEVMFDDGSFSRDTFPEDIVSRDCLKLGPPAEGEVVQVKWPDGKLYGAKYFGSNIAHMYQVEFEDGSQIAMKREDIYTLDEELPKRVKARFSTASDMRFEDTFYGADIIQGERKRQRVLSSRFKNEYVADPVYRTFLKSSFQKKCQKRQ

SUMO E1/E2 = SUMO E1/E2 (Homo sapiens, UniProt P63279+Q9UBE0+Q9UBT2); test: SAR analysis of SUMOylation using HTRF in an in-Vitro dose response assay. [Related pubchem assays (depositor defined):AID2006, AID2011, AID2018, AID2069, AID2658]; type: functional
Sequence of SUMO E1/E2 (Q9UBE0 whole entry): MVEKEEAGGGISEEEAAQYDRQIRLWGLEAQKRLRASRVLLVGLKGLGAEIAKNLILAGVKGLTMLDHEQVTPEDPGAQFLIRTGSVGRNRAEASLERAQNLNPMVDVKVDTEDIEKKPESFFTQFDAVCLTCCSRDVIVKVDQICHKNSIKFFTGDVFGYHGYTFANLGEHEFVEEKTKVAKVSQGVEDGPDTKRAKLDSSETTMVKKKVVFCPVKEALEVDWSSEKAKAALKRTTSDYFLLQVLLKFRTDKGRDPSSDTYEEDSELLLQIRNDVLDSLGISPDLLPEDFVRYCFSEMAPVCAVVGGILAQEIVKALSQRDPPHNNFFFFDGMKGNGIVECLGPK
Sequence of SUMO E1/E2 (Q9UBT2 whole entry): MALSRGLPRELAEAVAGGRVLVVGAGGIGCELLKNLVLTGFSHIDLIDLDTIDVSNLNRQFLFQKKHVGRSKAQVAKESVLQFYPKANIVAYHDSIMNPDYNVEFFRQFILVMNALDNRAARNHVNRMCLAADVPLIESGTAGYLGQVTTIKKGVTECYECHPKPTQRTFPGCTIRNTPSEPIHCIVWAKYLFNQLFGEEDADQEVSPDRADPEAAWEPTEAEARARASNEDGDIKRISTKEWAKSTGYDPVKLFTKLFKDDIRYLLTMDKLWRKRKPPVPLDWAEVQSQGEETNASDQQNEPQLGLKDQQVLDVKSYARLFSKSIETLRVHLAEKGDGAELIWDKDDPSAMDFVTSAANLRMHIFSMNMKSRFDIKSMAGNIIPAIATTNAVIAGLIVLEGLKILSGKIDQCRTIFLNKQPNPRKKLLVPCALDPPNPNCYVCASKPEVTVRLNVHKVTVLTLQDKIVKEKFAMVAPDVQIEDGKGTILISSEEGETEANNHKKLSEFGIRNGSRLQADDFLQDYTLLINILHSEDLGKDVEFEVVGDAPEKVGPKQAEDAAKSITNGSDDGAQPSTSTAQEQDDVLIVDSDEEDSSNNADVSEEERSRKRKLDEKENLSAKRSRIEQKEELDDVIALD
Sequence of SUMO E1/E2 (P63279 whole entry): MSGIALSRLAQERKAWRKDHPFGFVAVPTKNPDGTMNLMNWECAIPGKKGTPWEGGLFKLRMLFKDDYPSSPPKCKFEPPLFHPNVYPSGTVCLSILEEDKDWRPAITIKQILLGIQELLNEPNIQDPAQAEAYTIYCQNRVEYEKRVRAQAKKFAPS

[4] = molecular target: T2, Ubiquitin-conjugating enzyme E2 N (Homo sapiens, UniProt P61088); type: functional
T2 sequence (P61088 whole entry): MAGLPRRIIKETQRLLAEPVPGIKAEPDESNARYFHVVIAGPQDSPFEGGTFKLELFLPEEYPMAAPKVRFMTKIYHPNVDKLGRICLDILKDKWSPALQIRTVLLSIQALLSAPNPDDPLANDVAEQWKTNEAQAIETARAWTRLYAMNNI

Bcl-2-related protein A1 = molecular target: T3, Bcl-2-related protein A1 (Mus musculus, UniProt Q07440); type: functional;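 further: confirmatory dose–response counterscreen on Bfl-1, used to check hits from a UBC13 polyubiquitin inhibitor campaign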
T3 sequence (Q07440 whole entry): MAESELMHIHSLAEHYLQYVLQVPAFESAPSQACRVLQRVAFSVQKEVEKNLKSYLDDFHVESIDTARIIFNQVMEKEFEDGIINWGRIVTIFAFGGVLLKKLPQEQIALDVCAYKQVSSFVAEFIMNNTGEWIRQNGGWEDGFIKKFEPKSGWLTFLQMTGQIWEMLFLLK

[5] = molecular target: T2, Ubiquitin-conjugating enzyme E2 N; type: functional; remark: listed apart in the source
[6] = molecular target: T4, DNA repair protein RAD52 homolog (Homo sapiens, UniProt P43351); type: functional, biochemical
T4 sequence (P43351 whole entry): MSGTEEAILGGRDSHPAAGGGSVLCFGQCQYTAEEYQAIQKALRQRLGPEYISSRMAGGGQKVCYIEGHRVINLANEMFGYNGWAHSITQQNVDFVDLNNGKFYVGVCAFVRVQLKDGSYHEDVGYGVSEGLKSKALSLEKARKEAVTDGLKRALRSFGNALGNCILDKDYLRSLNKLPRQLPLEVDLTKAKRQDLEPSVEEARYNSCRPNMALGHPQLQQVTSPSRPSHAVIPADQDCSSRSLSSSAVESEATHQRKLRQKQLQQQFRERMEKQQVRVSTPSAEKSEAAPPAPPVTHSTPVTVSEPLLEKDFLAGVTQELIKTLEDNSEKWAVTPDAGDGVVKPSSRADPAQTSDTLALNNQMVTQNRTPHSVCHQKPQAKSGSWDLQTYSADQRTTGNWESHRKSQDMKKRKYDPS

[7] = tested on: Streptococcus sp. 'group A'; test: growth inhibition of control SK(-) GAS strain, dose response, counter-screen for streptokinase expression inhibitor project, luminescence, kanamycin, BacTiterGlo, confirmation (AID 1900); type: functional, organism-based
Trypsin = Trypsin (Sus scrofa, UniProt P00761); test: porcine trypsin inhibitors, dose response, selectivity assay for Rce1 protease inhibitor project, biochemical, quenched peptide fluorescence, cherry-pick (AID 488789)
Sequence of Trypsin (P00761 whole entry): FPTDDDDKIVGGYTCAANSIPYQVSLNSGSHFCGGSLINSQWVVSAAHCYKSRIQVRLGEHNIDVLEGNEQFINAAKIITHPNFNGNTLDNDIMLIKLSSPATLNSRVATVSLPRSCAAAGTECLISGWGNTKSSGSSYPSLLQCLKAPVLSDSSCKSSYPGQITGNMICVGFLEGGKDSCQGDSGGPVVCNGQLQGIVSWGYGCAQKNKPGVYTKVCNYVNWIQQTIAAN

Streptococcus = test: Group A Streptococcus viability loss, dose response, counter-screen for streptokinase expression inhibitor project, luminescence, BacTiterGlo (AID 1915); type: functional, organism-based;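 further: potency for reduction of bacterial viability or growth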
CAAX prenyl protease 1 = CAAX prenyl protease 1 (Saccharomyces cerevisiae S288c, UniProt P47154); test: Ste24 protease inhibitors, dose response, biochemical, S. cerevisiae, plate reader, cherry-pick (AID 488815)
Sequence of CAAX prenyl protease 1 (P47154 whole entry): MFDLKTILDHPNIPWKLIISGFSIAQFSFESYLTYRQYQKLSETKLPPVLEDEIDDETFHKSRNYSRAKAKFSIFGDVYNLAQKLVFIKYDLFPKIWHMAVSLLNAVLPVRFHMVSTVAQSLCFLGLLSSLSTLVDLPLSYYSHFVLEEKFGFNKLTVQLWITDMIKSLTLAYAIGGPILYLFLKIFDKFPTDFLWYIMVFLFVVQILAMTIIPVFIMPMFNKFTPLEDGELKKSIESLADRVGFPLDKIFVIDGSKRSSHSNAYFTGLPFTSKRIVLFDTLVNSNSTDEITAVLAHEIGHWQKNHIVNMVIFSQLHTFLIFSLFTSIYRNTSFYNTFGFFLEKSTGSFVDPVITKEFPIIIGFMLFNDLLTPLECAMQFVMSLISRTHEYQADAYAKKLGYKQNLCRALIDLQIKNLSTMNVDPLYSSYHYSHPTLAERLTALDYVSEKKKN

T1 sequence (P98170 whole entry): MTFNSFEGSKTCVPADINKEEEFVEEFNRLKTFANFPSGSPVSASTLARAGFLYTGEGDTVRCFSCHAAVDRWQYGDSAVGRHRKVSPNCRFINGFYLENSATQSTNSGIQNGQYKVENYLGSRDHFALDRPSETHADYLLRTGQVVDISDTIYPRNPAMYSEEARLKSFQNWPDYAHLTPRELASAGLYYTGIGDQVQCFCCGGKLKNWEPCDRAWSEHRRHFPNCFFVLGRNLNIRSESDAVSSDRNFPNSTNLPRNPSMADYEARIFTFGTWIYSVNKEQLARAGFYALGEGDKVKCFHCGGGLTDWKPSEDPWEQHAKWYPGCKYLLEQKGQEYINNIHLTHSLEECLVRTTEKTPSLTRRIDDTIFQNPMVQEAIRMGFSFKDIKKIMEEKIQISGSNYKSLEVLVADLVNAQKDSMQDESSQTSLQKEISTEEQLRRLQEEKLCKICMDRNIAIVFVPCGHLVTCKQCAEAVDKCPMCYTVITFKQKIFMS

For Cc1ccc2c(c1)C(c1ccccc1)N(C(=O)c1ccc(Br)o1)CC(=O)N2 (configuration not stated), the IC50 [1] was > 100 µM (inactive) and the IC50 [2] was > 100 µM (not active).

For C=CCn1c(C)c(C=C2C(=O)NC(=O)NC2=O)c2ccccc21, the AC50 [3] was 2.9 µM (active).

With COc1ccc(CNC(=O)COC(=O)c2cc(-c3cccs3)nc3ccccc23)cc1 the IC50 (SUMO E1/E2) was 43.3 µM (active).

For CCN(CC)CCNC(=O)c1ccc(NC(=O)c2cc(-c3ccncc3)nc3ccccc23)cc1, the IC50 [4] was > 20 µM (inactive), the IC50 (Bcl-2-related protein A1) was > 20 µM (inactive) and the IC50 [5] was 17 µM (active). For the same compound, the AC50 [6] was 20.4 µM (active).

With CC1COc2c(N3CCN(C)CC3)c(F)cc3c(=O)c(C(=O)O)cn1c23 (configuration not stated) [OFLOXACIN] the EC50 [7] was 3.03 µM (active), the AC50 (Trypsin) was 9.26 µM (active) and the EC50 (Streptococcus) was 4.11 µM (active). The AC50 (CAAX prenyl protease 1) was 1.95 µM (active).
